According to patent publication US20100076011A1, “Enantiomer-Pure Hexahydro-Pyrrolocyclopenta-Pyridine Derivatives” (priority 2004, published 2010):
pKi: −log10 of the molar value. Counter-ions that a name gives are not always drawn. Like-named read-outs stand apart in the source and are kept apart here.

Assays:
[1] = biological target: T1, α4β2-subtype (central nicotine receptor) (Rattus norvegicus, UniProt P09483+P12390); experiment: Radioligand assay: [3H] cytisin binding to the α4β2-subtype in rat brain membranes
T1 construct: Membrane-enriched fractions of rat brain without cerebellum; tissue ABS Inc. Wilmington, Del; host or cells: rat brain without cerebellum, membrane-enriched fractions
Protocol: (2 samples each). The non-specific binding was determined with 10 μM (−)nicotine. The incubation was […] by vacuum filtration through a Whatman GF/C filter which previously had been humidified with 0.5% polyethylene imine. Bound radioactivity was collected on Millipore Multiscreen plates FB with a Packard Cell Harvester, and determined with a Packard Topcount Microplate Beta Counter. IC50 values were determined by non-linear regression, and from this the Ki values by means of the Cheng-Prusoff equation, wherein Ki=IC50/1+[ligand]/KID. The mean Ki values were obtained from at least three individual determinations.

T1 sequence (P09483 31-630): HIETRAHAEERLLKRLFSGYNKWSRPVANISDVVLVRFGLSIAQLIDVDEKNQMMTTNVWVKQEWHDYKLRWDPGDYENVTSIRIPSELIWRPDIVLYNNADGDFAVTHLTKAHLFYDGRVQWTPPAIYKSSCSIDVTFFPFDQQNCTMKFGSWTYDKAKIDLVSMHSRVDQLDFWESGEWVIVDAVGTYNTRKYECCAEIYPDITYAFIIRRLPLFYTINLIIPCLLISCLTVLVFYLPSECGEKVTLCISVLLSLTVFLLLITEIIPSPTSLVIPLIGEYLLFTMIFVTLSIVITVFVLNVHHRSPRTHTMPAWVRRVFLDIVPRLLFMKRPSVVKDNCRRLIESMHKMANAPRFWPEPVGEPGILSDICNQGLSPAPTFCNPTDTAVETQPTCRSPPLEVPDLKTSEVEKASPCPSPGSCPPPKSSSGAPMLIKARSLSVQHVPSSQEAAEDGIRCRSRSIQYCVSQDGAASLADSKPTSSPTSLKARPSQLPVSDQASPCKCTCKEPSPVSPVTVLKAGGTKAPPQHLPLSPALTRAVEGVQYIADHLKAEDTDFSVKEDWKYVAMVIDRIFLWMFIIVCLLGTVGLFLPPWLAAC
T1 sequence (P12390 25-500): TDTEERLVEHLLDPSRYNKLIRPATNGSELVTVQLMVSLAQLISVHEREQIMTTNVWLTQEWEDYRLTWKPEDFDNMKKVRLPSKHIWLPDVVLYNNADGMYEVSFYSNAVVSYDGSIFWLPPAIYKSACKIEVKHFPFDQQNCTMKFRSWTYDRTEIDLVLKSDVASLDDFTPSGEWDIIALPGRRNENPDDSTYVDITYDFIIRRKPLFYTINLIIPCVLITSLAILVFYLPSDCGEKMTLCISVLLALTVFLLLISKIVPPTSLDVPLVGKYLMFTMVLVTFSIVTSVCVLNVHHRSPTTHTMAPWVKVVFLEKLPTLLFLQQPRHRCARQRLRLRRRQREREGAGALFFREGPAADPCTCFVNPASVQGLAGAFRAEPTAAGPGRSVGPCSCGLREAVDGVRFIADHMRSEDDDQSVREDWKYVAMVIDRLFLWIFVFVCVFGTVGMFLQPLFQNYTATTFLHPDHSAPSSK

Compound	pKi [1]	also measured
c1cc2c(cn1)[C@H]1NCC[C@H]1C2 (as salt: hydrochloride) [Example 6, (−)-[3aR-(3aα,8bα)]-1,2,3,3a,4,8b-Hexahydropyrrolo[3′,2′:4,5]-cyclopenta[1,2-c]pyridinodihydrochloride]	–	melting point: 94 to 95 °C
CN1CC[C@H]2Cc3ccncc3[C@H]21 [Example 8, (−)-[3aR-(3aα,8bα)]-1,2,3,3a,4,8b-Hexahydro-1-methylpyrrolo[3′,2′:4,5]cyclopenta[1,2-c]pyridinodihydrochloride]	7.57	–
CN1CC[C@@H]2Cc3ccncc3[C@@H]21 [Example 7, (+)-[3aS-(3aα,8bα)]-1,2,3,3a,4,8b-Hexahydro-1-methyl-pyrrolo[3′,2′:4,5]-cyclopenta[1,2-c]pyridinodihydrochloride]	5.78	–
CN1CCC2Cc3ncccc3C21 (single isomer, unassigned; (-)) [Example 3, (−)-[3aα,8bα]-1,2,3,3a,4,8b-Hexahydro-1-methyl-pyrrolo[2′,3′:3,4]cyclopenta[1,2-b]pyridine-dihydrochloride]	6.70	–
c1cc2c(cn1)[C@@H]1NCC[C@@H]1C2 [Example 5, (+)-(3aS-(3aα,8bα)]-1,2,3,3a,4,8b-Hexahydropyrrolo[3′,2′:4,5]-cyclopenta[1,2-c]-pyridinodihydrochloride]	–	pKi ([1]; [3H] cytisin 0.75 nM, rat brain membranes without cerebellum, 75 min at 4° C., mean of at least three determinations, Ki from IC50 by Cheng-Prusoff, read-out: Ki Values of the Enantiomer Pairs): 5.95
CN1CCC2Cc3ncccc3C21 (single isomer, unassigned; (+)) [Example 4, (+)-[3aα,8bα]-1,2,3,3a,4,8b-Hexahydro-1-methyl-pyrrolo[2′,3′:3,4]cyclopenta[1,2-b]pyridinedihydrochloride]	< 3.00	–
c1cc2c(cn1)[C@H]1NCC[C@H]1C2 [Example 6, (−)-[3aR-(3aα,8bα)]-1,2,3,3a,4,8b-Hexahydropyrrolo[3′,2′:4,5]-cyclopenta[1,2-c]pyridinodihydrochloride]	7.82	–
c1cnc2c(c1)C1NCCC1C2 (single isomer, unassigned; (-)) [Example 2, (−)-[3aα,8bα]-1,2,3,3a,4,8b-Hexahydropyrrolo-[2′,3′:3,4]cyclopenta[1,2-b]pyridine-dihydrochloride]	< 3.00	–
c1cnc2c(c1)C1NCCC1C2 (single isomer, unassigned; (-)) (as salt: hydrochloride) [Example 2, (−)-[3aα,8bα]-1,2,3,3a,4,8b-Hexahydropyrrolo-[2′,3′:3,4]cyclopenta[1,2-b]pyridine-dihydrochloride]	–	melting point: 95 to 97 °C
c1cnc2c(c1)C1NCCC1C2 (single isomer, unassigned; (+)) [Example 1, (+)-[3aα,8bα]-1,2,3,3a,4,8b-Hexahydropyrrolo-[2′,3′:3,4]cyclopenta[1,2-b]pyridine-dihydrochloride]	5.61	–
